Measurements published in PubChem BioAssay (NCI).
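Cells were grown in 96-well plates and exposed to each compound for 48 hours at five concentrations; endpoints were interpolated linearly between bracketing concentrations, or set to the highest concentration if not reached. Abbreviation: GI50, concentration required for 50% inhibition of growth. Definition used: TGI = concentration required for complete inhibition of growth.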

Assays:
Test in all cases: DTP human tumour cell line panel, 48 h
SN12C renal = system: SN12C renal
HCT-116 colon = system: HCT-116 colon
COLO 205 colon = system: COLO 205 colon
HL-60(TB) leukemia = system: HL-60(TB) leukemia
U251 CNS = system: U251 CNS
NCI/ADR-RES ovarian = system: NCI/ADR-RES ovarian
TK-10 renal = system: TK-10 renal
SF-539 CNS = system: SF-539 CNS
SNB-75 CNS = system: SNB-75 CNS
MDA-MB-231 breast = system: MDA-MB-231 breast

Compound | GI50 (SN12C renal) | TGI (SN12C renal) | GI50 (HCT-116 colon) | TGI (HCT-116 colon) | GI50 (COLO 205 colon) | TGI (COLO 205 colon) | GI50 (HL-60(TB) leukemia) | TGI (HL-60(TB) leukemia) | GI50 (U251 CNS) | TGI (U251 CNS) | GI50 (NCI/ADR-RES ovarian) | TGI (NCI/ADR-RES ovarian) | GI50 (TK-10 renal) | TGI (TK-10 renal) | GI50 (SF-539 CNS) | TGI (SF-539 CNS) | GI50 (SNB-75 CNS) | TGI (SNB-75 CNS) | GI50 (MDA-MB-231 breast) | TGI (MDA-MB-231 breast)
CC(=O)N1CC(Nc2ccc(OC(F)(F)F)cc2)=CC1=O | 7.95 µM | > 100 µM | 0.472 µM | 23.3 µM | 1.21 µM | 4.69 µM | 0.842 µM | > 100 µM | 3.34 µM | > 100 µM | 0.781 µM | 5.15 µM | 5.85 µM | > 100 µM | 1.31 µM | 9.01 µM | 1.59 µM | 7.59 µM |  | 
CCOC(=O)N1CCc2cc(OC)c(OC)c3c2C1CC3=O (configuration not stated) |  | > 100 µM |  | > 100 µM |  | > 100 µM |  | > 100 µM |  | > 100 µM |  |  |  | > 100 µM |  | > 100 µM |  | > 100 µM |  | 
CCOc1ccc([C@@H]2[C@@H](Oc3ccccc3)C(=O)N2c2cc(OC)c(OC)c(OC)c2)cc1 | 0.263 µM | > 100 µM | 0.0437 µM | 3.88 µM | 0.124 µM | 0.506 µM | 0.0263 µM | 0.0691 µM | 0.0462 µM | > 100 µM | 0.06 µM | > 100 µM | 16 µM | > 100 µM |  |  | 0.037 µM | > 100 µM | 0.177 µM | > 100 µM
CCOC(=O)C(=O)Nc1ccc(C)cc1C |  | > 100 µM |  | > 100 µM |  | > 100 µM |  | > 100 µM |  | > 100 µM |  |  |  | > 100 µM |  | > 100 µM |  |  |  | 
COc1ccc(C2=NNC(=O)OC2c2ccccc2)cc1 (configuration not stated) |  | > 100 µM |  | > 100 µM |  | > 100 µM |  | > 100 µM |  | > 100 µM |  |  |  | > 100 µM |  | > 100 µM |  | > 100 µM |  | 
CS(=O)CCCCCN=C=S (configuration not stated) | 3.44 µM | 11.4 µM | 2.86 µM | 10.2 µM | 3.21 µM | 12 µM |  |  | 4.42 µM | 15.8 µM | 4.72 µM | 22 µM | 3.83 µM | 10.3 µM |  |  | 3.01 µM | 16.5 µM | 4.76 µM | 17.4 µM
Cn1c2c(c3ccccc31)C1CCCCC1C1C(=O)NC(=O)C21 (configuration not stated) |  | > 100 µM |  |  |  | > 100 µM |  | 63.5 µM |  | > 100 µM |  |  |  | > 100 µM |  | > 100 µM |  | 71.3 µM |  | 
Cc1cc2c(=O)n(-c3ccc(F)cc3)c(C)nc2c(C(=O)O)c1C |  | > 100 µM |  | > 100 µM |  | > 100 µM |  | > 100 µM |  | > 100 µM |  |  |  | > 100 µM |  | > 100 µM |  | > 100 µM |  | 
COc1cc(/C=C/c2cc(/C=C/c3ccc(O)c(OC)c3)n(-c3c(C)cccc3C)c(=O)n2)ccc1O | 1.66 µM | > 100 µM | 0.695 µM | 3.38 µM | 2.07 µM | 4.19 µM | 0.271 µM | 1.11 µM | 0.635 µM | 4.08 µM | 1.42 µM | 5.77 µM | 1.14 µM | 4.87 µM |  |  |  |  | 1.76 µM | 9.95 µM
O=C(CC1(O)C(=O)Nc2ccccc21)c1ccccc1Cl (configuration not stated) |  | > 100 µM |  | > 100 µM |  | > 100 µM |  | > 100 µM |  |  |  |  |  | > 100 µM |  | > 100 µM |  | > 100 µM |  | 
Cc1ccc(NC(=O)c2cccc([N+](=O)[O-])c2O)c([N+](=O)[O-])c1 |  | 53.8 µM |  | 30.3 µM |  | 38.6 µM |  | > 100 µM |  | 38.9 µM |  |  |  |  |  | 34.3 µM |  | 29.4 µM |  | 
Cc1ccc(NC(=O)NC(=O)c2ccc([N+](=O)[O-])cc2[N+](=O)[O-])cc1Oc1ncc(Cl)cn1 |  | 16.6 µM |  | 4.78 µM |  | 5.9 µM |  | 0.584 µM |  | 3.83 µM |  |  |  | > 100 µM |  | 0.91 µM |  | 2.4 µM |  | 24.2 µM
CC(C)c1ccccc1NC(=O)C(=O)Cc1nc2ccccc2s1 |  | > 100 µM |  | > 100 µM |  | > 100 µM |  | > 100 µM |  | > 100 µM |  |  |  | > 100 µM |  | > 100 µM |  | > 100 µM |  | 
COc1ccc(/C=C2\CCCCC2=O)cc1 |  | > 100 µM |  | > 100 µM |  | > 100 µM |  | > 100 µM |  | > 100 µM |  |  |  | > 100 µM |  | > 100 µM |  | > 100 µM |  | 
C[C@]12CCC[C@H](Cl)C1(O)C[C@H](C(=O)O)CC2 (some centres not stated) |  | > 100 µM |  | > 100 µM |  | > 100 µM |  | > 100 µM |  | > 100 µM |  |  |  | > 100 µM |  | > 100 µM |  | > 100 µM |  | 
CC(C)C1OC(=O)C=C1Sc1ccccc1 (configuration not stated) |  | > 100 µM |  | > 100 µM |  | > 100 µM |  | > 100 µM |  | > 100 µM |  |  |  | > 100 µM |  | > 100 µM |  | > 100 µM |  | > 100 µM
CN1C2(c3ccccc3)c3c(-c4ccccc4)sc(-c4ccccc4)c3C1(c1ccccc1)C1C(=O)N(c3ccccc3)C(=O)C12 (configuration not stated) |  | > 100 µM |  | > 100 µM |  | > 100 µM |  | > 100 µM |  | > 100 µM |  |  |  | > 100 µM |  | > 100 µM |  | > 100 µM |  | 
COc1cc2c(cc1OC)-c1cc3cc(OC)c(OC)cc3n1CC2 |  | > 100 µM |  | > 100 µM |  | > 100 µM |  | > 100 µM |  | > 100 µM |  |  |  | 51.9 µM |  |  |  | 50.5 µM |  | 
CCOC(=O)c1sc2nc3sc(N=Nc4ccc(Cl)cc4)c(O)n3c(=S)c2c1C | 15.5 µM | 46.5 µM | 33.8 µM | > 100 µM | 17.7 µM | > 100 µM | > 100 µM | > 100 µM | 29.1 µM | > 100 µM | 17.4 µM | 44.6 µM | 25.9 µM | 96.4 µM | 25.1 µM | 50.5 µM | 15.5 µM | > 100 µM |  | 
Cc1ccc(-c2nc(SCC(=O)O)n[nH]2)cc1 |  | > 100 µM |  | > 100 µM |  | > 100 µM |  | > 100 µM |  | > 100 µM |  |  |  | > 100 µM |  | > 100 µM |  | > 100 µM |  | 
CN(C)c1ccc(N=Cc2c([O-])ccc3ccccc23)cc1.[C-]#[O+].[C-]#[O+].[Ir] | 19 µM | 35.5 µM | 17.7 µM | 32.1 µM | 17.5 µM | 33.9 µM |  |  | 15.7 µM | 30.4 µM |  |  | 22.5 µM | 53.3 µM | 19.9 µM | 40.7 µM | 19.3 µM | 50.4 µM |  | 
